Reference: PubChem BioAssay AID2060487 (Molecular Pharmacology Branch, DTP, NCI, 2025)

Tested on: 997537-175-T-J1-PDC complex spheroid viability
Test: Anticancer human tumor 997537-175-T-J1-PDC patient-derived colon adenocarcinoma cell line growth inhibition [GQUAD]
Conditions: for IC50: curve of first compound; for viability, T/C: stronger effect = lower value
Text: DNA G-quadruplex Stabilizer Agents in Combinations in Complex Spheroids
A high-throughput screen of multi-cell type tumor spheroids was designed to identify active combinations of DNA G-quadruplex stabilizer agents and targeted small molecules. Complex spheroids include a stromal component modeled by human endothelial cells (HUVEC) and fibroblasts modeled by human mesenchymal stem cells (MSCs). The concentration ranges selected for each drug and investigational agent were based upon clinically achievable concentrations if the clinical Cmax of the agent was known.
Compounds. The drugs and investigational agents: pidnarulex (CX-5461; NSC782164), APTO-253 (NSC789042), BRACO-19 (NSC847499), peposertib (NSC802822), ceralasertib (NSC780249), elimusertib (NSC800525), camonsertib (NSC841442), AZD-1390 (NSC803789), olaparib (NSC753686), talazoparib (NSC767125), ART-558 (NSC835418), sotorasib (NSC818433), MRTX-1133 (NSC836407), SN-38 (NSC673596), topotecan (NSC609699), etoposide (NSC141540), doxorubicin (NSC123127), gemcitabine (NSC613327), 5-fluorouracil (NSC19893), paclitaxel (NSC125973), vemurafenib (NSC761431), panobinostat (NSC761190), R-306465 (JNJ-16241199; NSC773264), adavosertib (NSC754352), TP-3654 (NSC805149), carboplatin (NSC241240), KSQ-4279 (NSC840948), and staurosporine (NSC755774) were obtained from the National Cancer Institute (NCI) Developmental Therapeutics Program Chemical Repository (34). The FDA-approved anticancer drug set is available from the NCI Developmental Therapeutics Program. […] The stock solutions were prepared in dimethyl sulfoxide (DMSO, Sigma-Aldrich, St. Louis, MO, cat. D2650) at 800-fold the tested concentration and stored at -70 degrees C prior to their use. All drugs and investigational agents were tested over a range starting from a high concentration at or near the clinical Cmax and decreasing in half-log increments. If the clinical Cmax for an agent had not been determined, the highest concentration tested was 10 microM.
2.3 Cell Culture. All cells were maintained in an incubator at 37 degrees C and 5% CO2 with 95% humidity. The PDC lines were cultured according to standard operating procedures established by the NCI PDMR. All PDCs were thawed and cultured in Matrigel-coated flasks prepared with a working solution of 1X Ham's F-12 nutrient mix, without supplementation (Invitrogen, cat. 11765054), 100 U/mL penicillin-streptomycin (Invitrogen, cat. 15140122), and 2.5% Matrigel (Corning Inc., cat. 354248) for the first three passages. The 857933-349-R-J2-PDC line was cultured in 6C/Colon 1B media, which includes advanced DMEM/F-12 (Thermo Fisher Scientific, cat. 12634028), 10 mM HEPES (Thermo Fisher Scientific, cat. 15630080), 1X GlutaMAX supplement (Thermo Fisher Scientific, cat. 35050061), 0.1 mg/mL primocin (InvivoGen, cat. ant-pm-2), 10% defined fetal bovine serum, heat inactivated (HyClone Laboratories Inc., cat. SH30070.03HI), 50% L-WRN conditioned media (ATCC, cat. CRL-3276), 1.25 mM N-Acetyl-L-cysteine (Sigma-Aldrich, cat. A9165), 10 mM nicotinamide (Sigma-Aldrich, cat. N0636), 1X B-27 supplement (Thermo Fisher Scientific, cat. 17504044), 1X N-2 supplement (Thermo Fisher Scientific, cat. 17502048), 10 microM Y-27632 dihydrochloride (Tocris Bioscience, cat. 1254), and 50 ng/mL human EGF recombinant protein (Thermo Fisher Scientific, cat. PHG0311). The 485176-168-R4-J1-PDC line was cultured in Panc media, which includes all 6C/Colon 1B media components plus 100 ng/mL human FGF-10 (Thermo Fisher Scientific, cat. 100-26), 500 nM SB-431542 (Selleckchem, cat. S1067), and gastrin (Tocris, cat. 3006).
[…]

[1] = second compound 0.0316 µM, first compound 0.0316 µM
[2] = second compound 0.0316 µM, first compound 0.1 µM
[3] = second compound 0.0316 µM, first compound 0.316 µM
[4] = second compound 0.0316 µM, first compound 1 µM
[5] = second compound 0.0316 µM, first compound 3.16 µM
[6] = second compound 0.0316 µM, first compound 10 µM
[7] = second compound 0.1 µM, first compound 0.0316 µM
[8] = second compound 0.1 µM, first compound 0.1 µM
[9] = second compound 0.1 µM, first compound 0.316 µM
[10] = second compound 0.1 µM, first compound 1 µM
[11] = second compound 0.1 µM, first compound 3.16 µM
[12] = second compound 0.1 µM, first compound 10 µM
[13] = second compound 0.316 µM, first compound 0.0316 µM
[14] = second compound 0.316 µM, first compound 0.1 µM
[15] = second compound 0.316 µM, first compound 0.316 µM
[16] = second compound 0.316 µM, first compound 1 µM
[17] = second compound 0.316 µM, first compound 3.16 µM
[18] = second compound 0.316 µM, first compound 10 µM
[19] = second compound 1 µM, first compound 0.0316 µM
[20] = second compound 1 µM, first compound 0.1 µM
[21] = second compound 1 µM, first compound 0.316 µM
[22] = second compound 1 µM, first compound 1 µM
[23] = second compound 1 µM, first compound 3.16 µM
[24] = second compound 1 µM, first compound 10 µM
[25] = second compound 3.16 µM, first compound 0.0316 µM
[26] = second compound 3.16 µM, first compound 0.1 µM
[27] = second compound 3.16 µM, first compound 0.316 µM
[28] = second compound 3.16 µM, first compound 1 µM
[29] = second compound 3.16 µM, first compound 3.16 µM
[30] = second compound 3.16 µM, first compound 10 µM
[31] = second compound 10 µM, first compound 0.0316 µM
[32] = second compound 10 µM, first compound 0.1 µM
[33] = second compound 10 µM, first compound 0.316 µM
[34] = second compound 10 µM, first compound 1 µM
[35] = second compound 10 µM, first compound 3.16 µM
[36] = second compound 10 µM, first compound 10 µM
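Also: spheroids exposed to the agents for 7 days.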
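For viability, T/C in this document: 100% = DMSO vehicle control viability.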

For `CCCS(=O)(=O)Nc1ccc(F)c(C(=O)c2c[nH]c3ncc(-c4ccc(Cl)cc4)cc23)c1F` + Cc1[nH]c2ccc(F)cc2c1-c1nc2c3cccnc3c3ncccc3c2[nH]1, the IC50 (second compound 0.0316 µM) was 5.74 µM, the IC50 (second compound 0.1 µM) was 5.6 µM and the IC50 (second compound 0.316 µM) was 8.05 µM. The IC50 (second compound 1 µM) was 1.92 µM, the IC50 (second compound 3.16 µM) was 2.03 µM and the IC50 (second compound 10 µM) was 1.47 µM. It also gave a viability, T/C [1] of 88.8%, a viability, T/C [2] of 107% and a viability, T/C [3] of 97.9%. For the same compound, the viability, T/C [4] was 70.1%, the viability, T/C [5] was 71.5% and the viability, T/C [6] was 34.4%. It also gave a viability, T/C [7] of 101%, a viability, T/C [8] of 105% and a viability, T/C [9] of 90%. For the same compound, the viability, T/C [10] was 94.1%, the viability, T/C [11] was 71.6% and the viability, T/C [12] was 27.5%. It also gave a viability, T/C [13] of 102%, a viability, T/C [14] of 101% and a viability, T/C [15] of 97.1%. It also gave a viability, T/C [16] of 69.2%, a viability, T/C [17] of 83.5% and a viability, T/C [18] of 41.8%. The viability, T/C [19] was 98.2%, the viability, T/C [20] was 97.4% and the viability, T/C [21] was 101%. It also gave a viability, T/C [22] of 73.4%, a viability, T/C [23] of 33.1% and a viability, T/C [24] of 30.7%. The viability, T/C [25] was 86%, the viability, T/C [26] was 81% and the viability, T/C [27] was 88%. The viability, T/C [28] was 72.8%, the viability, T/C [29] was 35.4% and the viability, T/C [30] was 16.5%. For the same compound, the viability, T/C [31] was 72.4%, the viability, T/C [32] was 82.5% and the viability, T/C [33] was 71.8%. For the same compound, the viability, T/C [34] was 63.3%, the viability, T/C [35] was 17.7% and the viability, T/C [36] was 28.9%.

`O=C(NO)c1cnc(N2CCN(S(=O)(=O)c3ccc4ccccc4c3)CC2)nc1` + Cc1[nH]c2ccc(F)cc2c1-c1nc2c3cccnc3c3ncccc3c2[nH]1 was tested, and the IC50 (second compound 0.0316 µM) was 0.0892 µM, the IC50 (second compound 0.1 µM) was 0.134 µM and the IC50 (second compound 0.316 µM) was 0.0915 µM. For the same compound, the IC50 (second compound 1 µM) was 0.0878 µM, the IC50 (second compound 3.16 µM) was 0.043 µM and the IC50 (second compound 10 µM) was < 0.0316 µM. For the same compound, the viability, T/C [1] was 93.7%, the viability, T/C [2] was 45.1% and the viability, T/C [3] was 19.4%. For the same compound, the viability, T/C [4] was 35.4%, the viability, T/C [5] was 39.2% and the viability, T/C [6] was 21.7%. The viability, T/C [7] was 73.6%, the viability, T/C [8] was 56.2% and the viability, T/C [9] was 31.2%. It also gave a viability, T/C [10] of 32.7%, a viability, T/C [11] of 20.9% and a viability, T/C [12] of 42.4%. It also gave a viability, T/C [13] of 78.8%, a viability, T/C [14] of 43.4% and a viability, T/C [15] of 52.3%. It also gave a viability, T/C [16] of 31.8%, a viability, T/C [17] of 42.2% and a viability, T/C [18] of 34.8%. For the same compound, the viability, T/C [19] was 74.4%, the viability, T/C [20] was 44.5% and the viability, T/C [21] was 37.6%. For the same compound, the viability, T/C [22] was 29.4%, the viability, T/C [23] was 23.6% and the viability, T/C [24] was 26.2%. For the same compound, the viability, T/C [25] was 55.9%, the viability, T/C [26] was 33.5% and the viability, T/C [27] was 30.5%. It also gave a viability, T/C [28] of 24.8%, a viability, T/C [29] of 25.6% and a viability, T/C [30] of 19.4%. It also gave a viability, T/C [31] of 45.1%, a viability, T/C [32] of 16.1% and a viability, T/C [33] of 10.4%. For the same compound, the viability, T/C [34] was 19.8%, the viability, T/C [35] was 16.6% and the viability, T/C [36] was 18%.

For `O=c1[nH]cc(F)c(=O)[nH]1` + Cc1[nH]c2ccc(F)cc2c1-c1nc2c3cccnc3c3ncccc3c2[nH]1, the IC50 (second compound 0.0316 µM) was > 10 µM, the IC50 (second compound 0.1 µM) was > 10 µM and the IC50 (second compound 0.316 µM) was > 10 µM. The IC50 (second compound 1 µM) was > 10 µM, the IC50 (second compound 3.16 µM) was > 10 µM and the IC50 (second compound 10 µM) was > 10 µM. It also gave a viability, T/C [1] of 95.6%, a viability, T/C [2] of 88.1% and a viability, T/C [3] of 109%. It also gave a viability, T/C [4] of 91.7%, a viability, T/C [5] of 80.3% and a viability, T/C [6] of 89.5%. The viability, T/C [7] was 87.4%, the viability, T/C [8] was 87.7% and the viability, T/C [9] was 84.6%. The viability, T/C [10] was 83.5%, the viability, T/C [11] was 98.3% and the viability, T/C [12] was 101%. The viability, T/C [13] was 94.2%, the viability, T/C [14] was 76.8% and the viability, T/C [15] was 78.5%. It also gave a viability, T/C [16] of 107%, a viability, T/C [17] of 114% and a viability, T/C [18] of 109%. It also gave a viability, T/C [19] of 79.2%, a viability, T/C [20] of 94% and a viability, T/C [21] of 85.4%. For the same compound, the viability, T/C [22] was 87.2%, the viability, T/C [23] was 108% and the viability, T/C [24] was 86.7%. The viability, T/C [25] was 87.2%, the viability, T/C [26] was 83% and the viability, T/C [27] was 94.1%. For the same compound, the viability, T/C [28] was 95.8%, the viability, T/C [29] was 94% and the viability, T/C [30] was 76.1%. The viability, T/C [31] was 70.2%, the viability, T/C [32] was 76.2% and the viability, T/C [33] was 88.6%. The viability, T/C [34] was 57%, the viability, T/C [35] was 61.4% and the viability, T/C [36] was 61.4%.
